The source made the active and inactive calls.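 How the source made its calls: active means AC50 no more than ten times the top concentration tested; inconclusive means flat fit with inhibition between 30% and 70%, or unusable fit; inactive means AC50 beyond ten times the top concentration.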
Biological target: Caspase recruitment domain-containing protein 9 (Homo sapiens) + B-cell lymphoma/leukemia 10 (Homo sapiens) (UniProt Q9H257+O95999)
Experiment: disruptors of CARD9-BCL10 binding, dose response, selectivity assay for CARD9-TRIM62 disruptor project, cell lysate, HEK293FT lysates, Luminex bead ELISA (AID 1259340)
Conditions: for activity change, negative = inhibition: at 80 µM (top of the series)

Sequence of Caspase recruitment domain-containing protein 9 (Homo sapiens) + B-cell lymphoma/leukemia 10 (Homo sapiens) (O95999 whole entry, looked up, the tested form may be a part): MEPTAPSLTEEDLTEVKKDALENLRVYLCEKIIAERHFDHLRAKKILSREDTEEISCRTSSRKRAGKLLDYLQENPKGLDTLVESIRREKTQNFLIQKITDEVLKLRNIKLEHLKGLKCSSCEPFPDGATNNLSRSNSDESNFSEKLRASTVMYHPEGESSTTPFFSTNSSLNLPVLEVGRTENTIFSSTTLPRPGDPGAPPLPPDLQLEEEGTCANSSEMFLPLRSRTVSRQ
Sequence of Caspase recruitment domain-containing protein 9 (Homo sapiens) + B-cell lymphoma/leukemia 10 (Homo sapiens) (Q9H257 whole entry, looked up, the tested form may be a part): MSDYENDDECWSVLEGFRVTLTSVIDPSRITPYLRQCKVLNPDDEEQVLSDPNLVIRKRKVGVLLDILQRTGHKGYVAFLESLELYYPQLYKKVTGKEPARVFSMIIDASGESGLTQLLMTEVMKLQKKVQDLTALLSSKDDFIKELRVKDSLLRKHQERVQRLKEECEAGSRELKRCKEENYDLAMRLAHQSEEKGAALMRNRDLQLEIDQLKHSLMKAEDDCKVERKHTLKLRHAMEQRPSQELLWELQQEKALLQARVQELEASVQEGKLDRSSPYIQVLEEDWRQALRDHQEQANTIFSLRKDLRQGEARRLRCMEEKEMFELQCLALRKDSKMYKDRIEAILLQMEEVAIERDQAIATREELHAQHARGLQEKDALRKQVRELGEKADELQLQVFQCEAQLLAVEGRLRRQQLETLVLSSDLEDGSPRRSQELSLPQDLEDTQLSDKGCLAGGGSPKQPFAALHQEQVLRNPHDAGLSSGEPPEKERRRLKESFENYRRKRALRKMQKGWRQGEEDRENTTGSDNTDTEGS

SMILES	activity change, negative = inhibition	AC50
CC(C)C(CC(=O)NCc1ccco1)c1ccco1 (centres undefined)	inactive	–
NC(=O)C1(N2CCCCC2)CCN(c2ncc(NC(=O)c3cccs3)cc2C(=O)O)CC1	inactive	–
O=C(Nc1nc(-c2ccco2)c(-c2ccco2)s1)c1ccco1	inactive	–
N#CNc1nc(O)cc(=O)[nH]1	inactive	–
Cc1cccc(Nc2nc(C(=O)Nc3cc(F)ccc3F)nc3ccccc23)c1	inactive	–
Cc1c(C(=O)OCC2CCCO2)[nH]c2c1C(=O)CC(c1ccco1)C2 (centres undefined)	inactive	–
O=C(COc1cccnc1[N+](=O)[O-])c1ccc(Cl)s1	–	40 µM
COC[C@]1(O)CCN(C(=O)CCN(C)S(C)(=O)=O)CC1(C)C	inactive	–
O=C(Nc1ccc(OCC(=O)N2CCOCC2)cc1)c1cncc(Br)c1	inactive	–
O=C(COC(=O)c1cc(-c2cccs2)nc2ccccc12)NCc1ccco1	–	> 160 µM (inactive)
O=C1C=C(c2ccccc2)Nc2ccccc2N1	–	> 160 µM (inactive)
O=C(NCc1ccco1)c1c2c(nc3ccccc13)CCC2	–	> 160 µM (inactive)
CCn1ccnc1C1CCN(C(=O)CCn2c(C)nc3ccccc32)CC1	inactive	–
O=C(O)COc1ccc(-n2cccc2)cc1	inactive	–
COc1ccc(S(=O)(=O)c2ccccc2)cc1NS(=O)(=O)c1cccc(C(=O)O)c1	inactive	–
Cc1ccc(N2C(=O)c3ccccc3C2C(=O)c2ccc(O)cc2O)cc1 (centres undefined)	inactive	–
O=S(=O)(c1ccccc1)N1CC2CN(Cc3ccc(O)cc3)C2C1 (centres undefined)	inactive	–
Cc1ccc(N2NC(c3ccc(Br)cc3)=CCC2=O)cc1	inactive	–
NC(=O)c1ccc(CN2C(=O)C3(CCNCC3)Nc3ccccc32)cc1	–	> 160 µM (inactive)
Cc1ccc(Nc2nc(C(=O)Nc3ccc(Cl)cc3)nc3ccccc23)cc1	–	> 160 µM (inactive)
COCC(=O)N1CCCC2(CCN(CCN3CCCC3)C2=O)C1 (centres undefined)	inactive	–
O=C(NC1(C(F)(F)F)Oc2ccc(Cl)cc2O1)N1CCC2(CC1)OCCO2 (centres undefined)	–	74.8 µM
NC(=O)C1(N2CCCCC2)CCN(c2ncc(NC(=O)c3ccccc3)cc2C(=O)O)CC1	inactive	–
CCN1CCOC(=O)C1CC(=O)Nc1cccc(C)c1 (centres undefined)	inactive	–
Cc1ccc2cc(CN(Cc3ccco3)S(C)(=O)=O)c(=O)[nH]c2c1	–	> 160 µM (inactive)

SMILES	activity change, negative = inhibition	AC50
COc1cccc(NC(=O)CN(C)C(=O)c2cc3c(s2)CCC3)c1	–	> 160 µM (inactive)
O=C1CC2(CCN(C(=O)Nc3ccccc3)CC2)CN1Cc1ccc(Cl)cc1	–	79.7 µM
CCc1ccc(Nc2nc(C(=O)NCc3ccc(N(C)C)cc3)nc3ccccc23)cc1	–	7.97 µM
COc1ccc(-c2nnc(-c3nc(Nc4ccc(NC(C)=O)cc4)c4ccccc4n3)o2)cc1	–	64.5 µM
O=[N+]([O-])c1cccc(-c2nnc3ccc4ccccc4n23)c1	–	> 160 µM (inactive)
COc1ccc2nc(-c3ccco3)c(-c3ccco3)nc2c1	–	39.2 µM
Cc1ccc(-c2nnc(-c3nc(Nc4nc5ccccc5s4)c4ccccc4n3)o2)cc1	–	64 µM
O=C(NCCc1ccccc1)c1cc2cccnc2n(Cc2ccccc2)c1=O	inactive	–
CCc1nc(OCc2ccco2)c2sc3nc4c(cc3c2n1)COC(C)(C)C4	inactive	–
O=C(Nc1nnc(-c2ccco2)s1)c1ccccc1	inactive	–
COc1ccc(-n2c(C)c3c(OC)cccc(=O)c3c2C)cc1	–	> 160 µM (inactive)
O=C(Nc1nccs1)c1cc(-c2ccccn2)nc2c(Cl)cccc12	–	41.1 µM
CCCN1CCCn2nc(CNC(=O)[C@@H](N)Cc3ccc(O)cc3)cc2C1	inactive	–
CC(C)(C)c1ccc(-c2nc(C#N)c(NCc3ccncc3)o2)cc1	inactive	–
O=C(COC(=O)c1ccc(S(=O)(=O)NCc2ccco2)cc1)Nc1ccc(Cl)cn1	inactive	–
C[C@H](CO)N1C[C@H](C)[C@@H](CN(C)CC2CCCCC2)OCCCC[C@H](C)Oc2ccc(NS(C)(=O)=O)cc2C1=O	inactive	–
c1ccc(-c2nc(-c3ccco3)n3ccccc23)cc1	–	> 160 µM (inactive)
CC(=O)c1ccc(NC(=O)c2noc3c2CCC3)cc1	inactive	–
O=C(Nc1nc(-c2nc3ccccc3s2)cs1)c1ccco1	inactive	–
OCc1ccc(O)c2ncccc12	inactive	–
O=C(COC(=O)c1cc(-c2ccco2)nc2ccccc12)NCc1ccccc1	inactive	–
Cc1cccc2nc(CSCc3ccco3)cn12	–	> 160 µM (inactive)
O=C(NCCCN1CCOCC1)c1cc(-c2ccco2)nc2ccccc12	inactive	–
O=C(O)CCc1ccc(-c2cccs2)n1NC(=O)c1ccco1	–	> 160 µM (inactive)
CC(=O)c1cccc(OCC(=O)N(C)CC(=O)NCc2ccco2)c1	–	> 160 µM (inactive)

SMILES	activity change, negative = inhibition	AC50
C=CC(=O)N1CCCC2(CCN(CCN3CCCC3)C2=O)C1 (centres undefined)	–	22.7 µM
NC(=O)C1(N2CCCCC2)CCN(c2ccc(NC(=O)c3ccccc3F)cc2C(=O)O)CC1	inactive	–
CC1(C)Cc2ccccc2-c2nc(-c3ccccc3)oc(=O)c21	inactive	–
O=C(O)C1Oc2cc3ccccc3cc2O1	–	> 160 µM (inactive)
O=C(Cc1ccc(S(=O)(=O)N2CCOCC2)s1)Nc1nc2c(s1)CCCC2	inactive	–
C(=C\c1ccco1)/c1nc2ccccc2[nH]1	–	58.6 µM
Cc1ccc(C(=O)Nc2cnc(N3CCC(C(N)=O)(N4CCCCC4)CC3)c(C(=O)O)c2)cc1	inactive	–
NC(=O)C1(N2CCCCC2)CCN(c2ccc(NC(=O)c3cccc(Cl)c3)cc2C(=O)O)CC1	inactive	–
CC1CCN(c2nc(-c3ccco3)c3c(c2C#N)CC(C)(C)OC3)CC1	inactive	–
CC(=O)Nc1ccc(Nc2nc(-c3nnc(-c4cccc(C)c4)o3)nc3ccccc23)cc1	–	72.4 µM
c1coc(-c2cn3ccc4ccccc4c3n2)c1	inactive	–
CC(C(=O)N1CCCC1)N1CCN(c2ccccc2O)CC1 (centres undefined)	inactive	–
O=[N+]([O-])c1ccc2nn(Cc3ccccc3)cc2c1	inactive	–
Cc1ccc(-c2cc(C(=O)NCc3ccco3)c3ccccc3n2)o1	–	80.3 µM
O=C(Nc1nncs1)c1cc(-c2ccco2)nc2ccccc12	–	68.5 µM
O=c1/c(=C/c2ccco2)sc2nc3ccccc3n12	inactive	–
CCCN1CCCn2nc(CNC(=O)[C@H]3CC[C@@H](N)C3)cc2C1	inactive	–
CCCc1oc(C(=O)O)cc1CN	inactive	–
Cc1cncc(-c2ccc(S(N)(=O)=O)cc2F)c1	inactive	–
O=C1CS/C(=N\N=C\c2ccco2)N1c1ccccc1	–	> 160 µM (inactive)
CCCc1cc(C(=O)N2CC[C@H]3CNC[C@H]32)n(C)n1	inactive	–
Cc1ccc(C(=O)Nc2ccc(N3CCC(C(N)=O)(N4CCCCC4)CC3)c(C(=O)O)c2)cc1	inactive	–
O=C(NCCc1ccco1)c1ccc(OCc2cn3ccccc3n2)cc1	inactive	–
CC(=O)c1sc2nc(-c3ccco3)ccc2c1N	–	26.1 µM
Cc1ccc(S(=O)(=O)Cc2ccc(C(=O)N3CCC4(CC3)OCCO4)o2)cc1	inactive	–

SMILES	activity change, negative = inhibition	AC50
CCOc1ccccc1NC(=O)N1CCCC(c2nccn2CCOC)C1 (centres undefined)	–	> 160 µM (inactive)
O=C(Nc1nc(-c2ccco2)c(-c2ccco2)s1)c1ccc(F)cc1F	–	> 160 µM (inactive)
CCc1nccn1CCC(=O)N1C[C@H](CO)C[C@H](CN2CCCC2)C1	inactive	–
O=S(=O)(Nc1nc2ccc(S(=O)(=O)N3CCCCC3)cc2s1)c1ccccc1	inactive	–
O=C(Nc1nccs1)c1cc(-c2ccco2)nc2ccccc12	–	> 160 µM (inactive)
Cc1ccc(-c2nn(-c3ccccc3)cc2CN(Cc2ccccc2)C(=O)CCC(=O)O)o1	inactive	–
Nc1ccc2ncccc2c1N	–	16.1 µM
C[C@H](CO)N1C[C@H](C)[C@@H](CN(C)CC2CCCCC2)OCCCC[C@H](C)Oc2ccc(NS(=O)(=O)c3ccc(F)cc3)cc2C1=O	–	> 160 µM (inactive)
O=C(CN1CCOC1=O)N1CCC2(CCC(=O)N(CCCn3ccnc3)C2)CC1	inactive	–
O=S(=O)(Nc1nccs1)c1ccc(-n2cccc2)cc1	inactive	–
O=C(NCC1CCCO1)c1cc(-c2ccco2)nc2ccccc12 (centres undefined)	–	> 160 µM (inactive)
Cc1cnc(C)c(N2CCN(C(=O)[C@H]3CC[C@@H](N)C3)CC2)n1	inactive	–
CCOC(=O)C1CCN(C(=O)CN(Cc2ccccc2)S(C)(=O)=O)CC1	inactive	–
Cc1nc(C)c(C(=O)Nc2ncc([N+](=O)[O-])s2)o1	–	66 µM
COc1ccc(-c2ccc(CCC(=O)O)o2)cc1	inactive	–
O=C(O)c1ccc2nc(-c3ccco3)c(-c3ccco3)nc2c1	–	19.6 µM
O=S(=O)(c1ccc2nc(-c3ccco3)c(-c3ccco3)nc2c1)N1CCOCC1	–	20.3 µM
CC1=CCC(C(=O)O)C(C(=O)NC2CCCCC2)C1 (centres undefined)	inactive	–
O=C(NC1CC1)c1cc(-c2ccco2)nc2ccccc12	–	> 160 µM (inactive)
COCCC(=O)N1CCCC2(CCN(CCN3CCCC3)C2=O)C1 (centres undefined)	inactive	–
CN(C)c1ccc(CN2C[C@H]3CC[C@@H]2CN(C(=O)c2ccncc2)C3)cn1	–	> 160 µM (inactive)
CCN1CCN(C(=O)c2cc(-c3ccco3)nc3ccccc23)CC1	–	> 160 µM (inactive)
O=C(Nc1nc(-c2ccco2)c(-c2ccco2)s1)C1CCC1	–	> 160 µM (inactive)
C=CCNc1ncnc2c1CCN(C(=O)c1ccc(CSC)o1)CC2	–	> 160 µM (inactive)

Reference: PubChem BioAssay AID1259340 (Broad Institute, 2017)
